# Results: publication PMC11776921 (Journal of chemical theory and computation, 2024)
# Target: GSK-3β (Homo sapiens, UniProt P49841)
# Test: GSK-3 kinase Z'LYTE assay
# Format: biochemical
# Conditions: COB-136 versus COB-187; nitrogen in the pyridine ring replaced by carbon
# Sequence of GSK-3β (P49841 whole entry): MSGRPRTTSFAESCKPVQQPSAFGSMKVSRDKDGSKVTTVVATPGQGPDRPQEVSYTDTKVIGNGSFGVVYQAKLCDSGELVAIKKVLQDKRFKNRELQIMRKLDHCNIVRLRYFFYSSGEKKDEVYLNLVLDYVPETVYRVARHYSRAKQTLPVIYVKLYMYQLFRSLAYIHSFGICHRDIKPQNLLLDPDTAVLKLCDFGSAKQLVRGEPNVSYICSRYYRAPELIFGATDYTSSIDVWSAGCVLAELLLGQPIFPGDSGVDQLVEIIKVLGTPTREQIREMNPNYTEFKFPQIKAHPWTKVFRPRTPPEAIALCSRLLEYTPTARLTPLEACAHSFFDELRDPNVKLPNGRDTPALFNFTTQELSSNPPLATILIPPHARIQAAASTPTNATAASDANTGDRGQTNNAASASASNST
smiles,measurement,value
OC1(c2ccccc2)CSC(=S)N1Cc1ccccc1 (stereo not shown) [COB-136],inhibitory activity (in words),dramatically impairs the inhibitory activity
